Data from PMC5719400, “Engineering an aldehyde dehydrogenase toward its substrates, 3-hydroxypropanal and NAD^+, for enhancing the production of 3-hydroxypropionic acid” (Scientific Reports, 2017).

Molecular target: T1, KGSADH (α-ketoglutaric semialdehyde dehydrogenase) (Azospirillum brasilense, UniProt Q1JUP4)
T1 construct: gene araE; N-terminal His6-tag (pQE80L), expressed in E. coli DH10β, Ni-NTA purified; catalytic residues E253 and C287
Assay: product inhibition, A340 activity assay
Type: biochemical
Details: 2 mM NAD+, 100 mM phosphate pH 8

T1 sequence (Q1JUP4 2-481): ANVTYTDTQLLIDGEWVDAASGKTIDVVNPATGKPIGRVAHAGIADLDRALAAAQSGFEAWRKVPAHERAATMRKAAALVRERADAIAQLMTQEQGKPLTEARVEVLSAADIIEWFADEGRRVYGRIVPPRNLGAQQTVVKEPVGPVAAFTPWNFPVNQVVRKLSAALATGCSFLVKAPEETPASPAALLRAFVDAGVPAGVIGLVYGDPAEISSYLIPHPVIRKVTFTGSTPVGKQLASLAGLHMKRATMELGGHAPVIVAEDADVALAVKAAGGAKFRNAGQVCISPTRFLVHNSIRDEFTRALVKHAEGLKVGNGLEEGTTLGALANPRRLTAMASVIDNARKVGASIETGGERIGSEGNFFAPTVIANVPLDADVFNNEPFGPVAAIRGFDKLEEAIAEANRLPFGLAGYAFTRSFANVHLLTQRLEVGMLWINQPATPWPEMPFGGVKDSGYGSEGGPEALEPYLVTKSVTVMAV

% decrease in activity at 1 M: ~ 40%
SMILES: O=C(O)CCO [3-HP, 3-hydroxypropionic acid]
